From patent US20040092583A1, “Treatment for inhibiting neoplastic lesions” (priority 2001, published 2004)
Converted amounts (≈) assume the structure as drawn.

Tests used:
Format in all cases: cell-based
[1] = tested on: PC3 Human Prostate Carcinoma; test: clonogenic assay (two-layered soft agar), PC3; settings: continuous exposure 5-6 days, read-out: IC50 (inhibition of colony formation by 50%)
Description: (§1) In vitro cytotoxic activity of extracts containing high concentrations of incensole, furanogermacren and incensole/furanogermacren mixture were determined in several cultured tumour cell lines by performing the […] clonogenic assay. This assay assesses the inhibition of colony formation of tumour stem cells growing in soft agar by cytotoxic agents. Since tumour stem cells are responsible for the proliferate potential and aggressiveness of a tumour cell population, the clonogenic assay is highly predictive of in vivo response.
(§2) The extracts were dissolved in DMSO/water 1:1, prepared as a 30 mg/ml solution and stored at −20° C. until use. […]
(§3) Human tumour cell lines were grown in RPMI 1640 supplemented with 10% fetal calf serum and 2 mM L-glutamine. […] For treatment experiments, exponentially growing cells were trypsinized, washed twice with PBS and the percentage of viable cells was determined by hemocytometer count using trypan blue viable dye exclusion.
(§4) The clonogenic assay was performed according to a modified two-layered soft agar assay. […] Cultures were incubated at 5% CO2 and 37° C. in a humidifled atmosphere for 5-6 days under continuous exposure to drugs and monitored closely for colony growth using an inverted microscope. […]
(§5) If an ID50 or IC70 value could not be determined within the examined dose range, the lowest or highest concentration studies was used for the calculation. […]

HT29 colon carcinoma = test: clonogenic assay (two-layered soft agar), HT29; settings: Homo sapiens, HT-29, continuous exposure 5-6 days, read-out: IC50 (inhibition of colony formation by 50%)
Description: as §1, §2, §3, §4, §5

[2] = tested on: Staphylococcus aureus NCTC 10442; test: MIC, macrodilution broth procedure; settings: NCTC10442
Description: These studies were performed to determine the minimum inhibitory concentration (MIC) of incensole/furanogermacren mixture. MIC values were determined using a macrodiluton broth procedure based on NCCLS Documents M7-A3 “Methods for dilution anti-microbial susceptibility tests for bacteria that grow aerobically-third edition, approved standard (1993). […] The following organisms were tested: [table]

[3] = tested on: Enterococcus feacalis NCTC 775; test: MIC, macrodilution broth procedure; settings: NCTC775
Description: (§6) These studies were performed to determine the minimum inhibitory concentration (MIC) of incensole/furanogermacren mixture.
(§7) MIC values were determined using a macrodiluton broth procedure based on NCCLS Documents M7-A3 “Methods for dilution anti-microbial susceptibility tests for bacteria that grow aerobically-third edition, approved standard (1993).

[4] = tested on: Staphylococcus aureus NCTC 6571; test: MIC, macrodilution broth procedure; settings: NCTC6571
Description: as §6, §7

IC50 [1]: 6 µg/mL (≈ 19.6 µM)
IC50 (HT29 colon carcinoma): 70 µg/mL (≈ 228 µM)
MIC [2]: 38 µg/mL (≈ 124 µM)
MIC [3]: 38 µg/mL (≈ 124 µM)
MIC [4]: 38 µg/mL (≈ 124 µM)
SMILES: C/C1=C\C[C@]2(C(C)C)CC[C@@](C)(O2)[C@@H](O)CC/C(C)=C/CC1 [Incensole, incensole]
